Assay results: ChEMBL document CHEMBL4482309, “Discovery of the first selective c5a2 receptor (c5l2/c5ar2) ligands” (2017)
Calls of active or inactive are those of the source. The calls are words filed in the database; no cut-off is given here.

What was measured:
[1] = biological target: C5a anaphylatoxin chemotactic receptor 2 (Homo sapiens) (UniProt Q9P296); test: Displacement of [125I]-C5a from C5a2 receptor (unknown origin) expressed in Flp-In CHO cell membranes at 100 uM incubated for 1 hr by microbeta scintillation counting assay
Chain of C5a anaphylatoxin chemotactic receptor 2 (Homo sapiens) (Q9P296 whole entry): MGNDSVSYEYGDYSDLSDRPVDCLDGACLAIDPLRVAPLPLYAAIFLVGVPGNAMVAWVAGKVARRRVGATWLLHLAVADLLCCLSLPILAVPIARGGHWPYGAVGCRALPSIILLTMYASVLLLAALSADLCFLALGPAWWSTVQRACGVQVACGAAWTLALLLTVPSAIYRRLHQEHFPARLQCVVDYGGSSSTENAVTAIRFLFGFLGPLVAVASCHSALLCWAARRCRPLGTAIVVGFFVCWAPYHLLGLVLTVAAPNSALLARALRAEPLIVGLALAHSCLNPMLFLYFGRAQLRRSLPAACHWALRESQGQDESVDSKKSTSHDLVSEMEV

[2] = biological target: C5a anaphylatoxin chemotactic receptor 2 (Homo sapiens) (UniProt Q9P296); test: Displacement of [125I]-C5a from C5a2 receptor (unknown origin) expressed in Flp-In CHO cell membranes incubated for 1 hr by microbeta scintillation counting assay
[3] = biological target: T1, C5a anaphylatoxin chemotactic receptor 1 (Homo sapiens) (UniProt P21730); test: Displacement of [125I]-C5a from C5a1 receptor (unknown origin) expressed in Flp-In CHO cell membranes incubated for 1 hr by microbeta scintillation counting assay
T1 sequence (whole entry): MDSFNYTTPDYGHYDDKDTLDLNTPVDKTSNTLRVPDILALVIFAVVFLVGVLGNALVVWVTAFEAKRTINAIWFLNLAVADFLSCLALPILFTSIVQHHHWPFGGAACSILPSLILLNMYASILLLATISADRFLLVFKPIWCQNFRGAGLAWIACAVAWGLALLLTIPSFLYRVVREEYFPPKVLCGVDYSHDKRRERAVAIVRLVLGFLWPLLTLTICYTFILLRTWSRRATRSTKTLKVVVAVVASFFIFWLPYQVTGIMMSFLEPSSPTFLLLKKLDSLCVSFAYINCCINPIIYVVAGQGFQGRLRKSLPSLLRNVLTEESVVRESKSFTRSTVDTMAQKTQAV

[4] = biological target: C5a anaphylatoxin chemotactic receptor 2 (Homo sapiens) (UniProt Q9P296); test: Partial agonist activity at C5a2 receptor (unknown origin) expressed in HEK293 cells assessed as induction of beta-arrestin-2 recruitment incubated for 1 hr by BRET assay; format: cell-based
[5] = biological target: C5a anaphylatoxin chemotactic receptor 2 (Homo sapiens) (UniProt Q9P296); test: Partial agonist activity at C5a2 receptor (unknown origin) expressed in HEK293 cells assessed as induction of beta-arrestin-2 recruitment incubated for 1 hr by BRET assay relative to C5a; format: cell-based
[6] = biological target: T1, C5a anaphylatoxin chemotactic receptor 1 (Homo sapiens); test: Agonist activity at C5a1 receptor (unknown origin) expressed in HEK293 cells assessed as induction of beta-arrestin-2 recruitment at 100 uM incubated for 1 hr by BRET assay; format: cell-based
[7] = biological target: C5a anaphylatoxin chemotactic receptor 2 (Homo sapiens) (UniProt Q9P296); test: Partial agonist activity at human C5a2 receptor assessed as induction of beta-arrestin-2 recruitment by DiscoverX Path Hunter kit based assay
[8] = biological target: T1, C5a anaphylatoxin chemotactic receptor 1 (Homo sapiens); test: Partial agonist activity at human C5a1 receptor assessed as induction of beta-arrestin-2 recruitment by DiscoverX Path Hunter kit based assay
[9] = biological target: C5a anaphylatoxin chemotactic receptor 1/2 (Homo sapiens) (UniProt P21730+Q9P296); test: Induction of C5a1-C5a2 heteromer formation (unknown origin) expressed in HEK293 cells at 100 uM by BRET assay; format: cell-based
[10] = biological target: C5a anaphylatoxin chemotactic receptor 2 (Homo sapiens) (UniProt Q9P296); test: Agonist activity at C5a2 receptor in HMDM assessed as inhibition of LPS-induced TNFalpha release at 0.1 to 100 uM by ELISA
[11] = biological target: C5a anaphylatoxin chemotactic receptor 2 (Homo sapiens) (UniProt Q9P296); test: Agonist activity at C5a2 receptor in LPS-induced IHMDM assessed as effect on […] release at 0.1 to 100 uM by ELISA
[12] = biological target: C5a anaphylatoxin chemotactic receptor 2 (Homo sapiens) (UniProt Q9P296); test: Agonist activity at C5a2 receptor in HMDM assessed as inhibition of LPS-induced IL-6 release at 100 uM by ELISA
[13] = biological target: C5a anaphylatoxin chemotactic receptor 2 (Homo sapiens) (UniProt Q9P296); test: Agonist activity at C5a2 receptor in HMDM assessed as inhibition of LPS-induced TNFalpha release at 100 uM in presence of C5a1 antagonist PMX53 by ELISA
[14] = biological target: T2, Mitogen-activated protein kinase; ERK1/ERK2 (Homo sapiens) (UniProt P27361+P28482); test: Induction of ERK1/2 phosphorylation in HMDM at 100 uM incubated for 30 mins; format: protein assay
T2 sequence (P27361 whole entry, looked up): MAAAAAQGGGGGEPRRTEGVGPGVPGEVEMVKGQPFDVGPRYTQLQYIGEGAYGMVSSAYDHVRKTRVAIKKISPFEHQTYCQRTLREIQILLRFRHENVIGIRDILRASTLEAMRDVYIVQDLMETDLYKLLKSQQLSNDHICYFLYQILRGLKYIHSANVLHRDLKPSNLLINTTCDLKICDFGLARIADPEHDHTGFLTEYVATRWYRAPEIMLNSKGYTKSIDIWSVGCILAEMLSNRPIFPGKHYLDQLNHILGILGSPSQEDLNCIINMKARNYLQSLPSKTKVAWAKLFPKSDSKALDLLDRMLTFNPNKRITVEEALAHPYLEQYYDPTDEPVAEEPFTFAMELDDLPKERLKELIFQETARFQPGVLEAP
T2 sequence (P28482 whole entry, looked up): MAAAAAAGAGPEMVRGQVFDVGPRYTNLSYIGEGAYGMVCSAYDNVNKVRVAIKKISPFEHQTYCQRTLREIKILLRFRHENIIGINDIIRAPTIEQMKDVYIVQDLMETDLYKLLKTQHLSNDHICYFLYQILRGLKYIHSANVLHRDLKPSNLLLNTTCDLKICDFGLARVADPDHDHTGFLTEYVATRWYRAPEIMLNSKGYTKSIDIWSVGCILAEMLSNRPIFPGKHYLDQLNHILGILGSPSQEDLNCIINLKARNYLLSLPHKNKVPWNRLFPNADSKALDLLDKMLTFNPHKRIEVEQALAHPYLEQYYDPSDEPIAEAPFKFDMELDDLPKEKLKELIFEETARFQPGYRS

[15] = biological target: T2, Mitogen-activated protein kinase; ERK1/ERK2 (Homo sapiens); test: Agonist activity at C5a2 receptor in HMDM assessed as inhibition of C5a-induced induction of ERK1/2 phosphorylation in HMDM at 100 uM pre-incubated for 30 mins before C5a addition and measured after 10 mins
[16] = biological target: C5a anaphylatoxin chemotactic receptor 2 (Homo sapiens) (UniProt Q9P296); test: Agonist activity at C5a2 receptor in HMDM assessed as inhibition of LPS-induced IL-6 release at 10 to 100 uM by ELISA
[17] = test system: Mus musculus; test: Inhibition of C5a-induced neutrophil mobilization in iv dosed wild type mouse; format: functional, organism-based
[18] = test system: Mus musculus; test: Inhibition of C5a-induced neutrophil mobilization in iv dosed C5aR2 (-/-) mouse; format: functional, organism-based

Row | Substance | inhibition [1] | inhibition [2] | inhibition [3] | Activity [4] | Activity [5] [%] | Activity [6] | Activity [7] | Activity [8] | Activity [9] | inhibition [10] | Activity [11] | inhibition [12] | inhibition [13] | Activity [14] | inhibition [15] | inhibition [16] | inhibition [17] | inhibition [18]
1 | Ac-LIRLWR-OH | Active | Dose-dependent effect | Dose-dependent effect | Dose-dependent effect | 52.9 | inactive | Active | inactive | inactive | inactive | inactive | Active | inactive | inactive | Active | – | – | –
2 | Ac-RHYPYWR-OH | Active | Dose-dependent effect | Dose-dependent effect | Dose-dependent effect | 28.8 | inactive | Active | inactive | inactive | inactive | inactive | – | inactive | inactive | Active | Active | Active | inactive
